Experimental data from US11072585B2 (PharmAkea, Inc., priority 2015, dated 2021).
Where a name gives a salt, the structure may show the parent alone.

Target: human LOXL2 (Homo sapiens (Human), UniProt Q9Y4K0)
Assay: Human LOXL2 amine oxidase activity assay (Amplex Red)
Format: biochemical
Conditions: concentrated conditioned media from CHO cells stably expressing human LOXL2; 2 h at 37° C. with compound; DAP substrate
Description: Example B-1: Human LOXL2 Amine Oxidase Activity Assay
LOXL2 amine oxidase activity is evaluated by measuring Amplex Red fluorescence using 10-20× concentrated conditioned media from CHO cells stably expressing human LOXL2. To assay for amine oxidase activity, 10 μL of the concentrated conditioned media is incubated with 2 μL of test compound in DMSO and 73 μL Assay Buffer (50 mM Borate Buffer, pH8) for 2 h at 37° C. After the 2 h incubation, 5 ul of 10 mM 1,5-Diaminopentane (DAP) diluted in Assay Buffer and 10 μl of Amplex Red Mix (8.5 μl Assay Buffer+0.5 μl of 10 mM Amplex Red+1 μl of 500 U/ml Horseradish Peroxidase) are added and the plate mixed and immediately placed on the FlexStaion for fluorescence measurements. Fluorescence is read in kinetic mode every 2 min for 1 hour at excitation=544 and emission=590. The amine oxidase activity is calculated from the slope of the linear portion of the curve.

human LOXL2, sequence (Q9Y4K0 26-774): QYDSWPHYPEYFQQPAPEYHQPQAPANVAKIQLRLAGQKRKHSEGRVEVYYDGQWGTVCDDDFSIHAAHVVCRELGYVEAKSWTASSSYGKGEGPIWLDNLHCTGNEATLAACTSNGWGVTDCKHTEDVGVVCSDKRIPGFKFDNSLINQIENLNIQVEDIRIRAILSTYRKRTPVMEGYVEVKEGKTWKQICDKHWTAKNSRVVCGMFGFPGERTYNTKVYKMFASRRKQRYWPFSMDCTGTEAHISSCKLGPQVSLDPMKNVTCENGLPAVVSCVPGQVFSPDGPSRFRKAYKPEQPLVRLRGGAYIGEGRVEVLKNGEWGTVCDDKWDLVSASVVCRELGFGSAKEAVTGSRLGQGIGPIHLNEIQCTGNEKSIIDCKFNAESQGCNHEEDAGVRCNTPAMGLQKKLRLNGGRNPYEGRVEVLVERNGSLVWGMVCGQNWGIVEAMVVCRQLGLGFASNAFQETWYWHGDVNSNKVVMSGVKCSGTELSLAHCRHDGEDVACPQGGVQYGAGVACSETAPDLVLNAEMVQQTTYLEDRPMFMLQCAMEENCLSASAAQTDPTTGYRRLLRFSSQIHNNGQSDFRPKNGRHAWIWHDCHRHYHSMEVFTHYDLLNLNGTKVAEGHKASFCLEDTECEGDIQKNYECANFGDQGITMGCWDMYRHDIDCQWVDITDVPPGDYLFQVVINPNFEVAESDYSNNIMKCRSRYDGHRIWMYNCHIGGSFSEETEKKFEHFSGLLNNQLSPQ

Compound | IC50 [nM]
NCc1cc(Oc2cc(C(=O)N3C[C@@H](O)[C@H](F)C3)ccc2OCc2ccccc2)nc(C(F)(F)F)c1 (racemic) [Compound 1-231, Racemic-trans-(3-((4-(aminomethyl)-6-(trifluoromethyl)pyridin-2-yl)oxy)-4-(benzyloxy)phenyl)(3-fluoro-4-hydroxypyrrolidin-1-yl)methanone] | < 300
NCc1cc(Oc2cccc3c2CCC(=O)N3CCO)nc(C(F)(F)F)c1 [Compound 1-60, 5-((4-(Aminomethyl)-6-(trifluoromethyl)pyridin-2-yl)oxy)-1-(2-hydroxyethyl)-3,4-dihydroquinolin-2(1H)-one hydrochloride] | 300 to 1000
NCc1cc(Oc2cccc(COc3ccccc3)c2)nc(C(F)(F)F)c1 [Compound 1-4, (2-(3-(Phenoxymethyl)phenoxy)-6-(trifluoromethyl)pyridin-4-yl)methanamine trifluoroacetate] | < 300
NCc1cc(Oc2cccc3c2CCC(=O)N3CC(=O)O)nc(C(F)(F)F)c1 [Compound 1-236, 2-(5-((4-(Aminomethyl)-6-(trifluoromethyl)pyridin-2-yl)oxy)-2-oxo-3,4-dihydroquinolin-1(2H)-yl)acetic acid hydrochloride] | > 1000
C#CCNC(=O)c1cccc(Oc2cc(CN)cc(C(F)(F)F)n2)c1 [Compound 1-248, 3-((4-(Aminomethyl)-6-(trifluoromethyl)pyridin-2-yl)oxy)-N-(prop-2-yn-1-yl)benzamide hydrochloride] | < 300
Cl.[2H]C([2H])(N)c1cc(Oc2cccc(C(=O)Nc3ccccc3)c2)nc(C(F)(F)F)c1 [Compound 1-8, 3-((4-(Aminomethyl-d2)-6-(trifluoromethyl)pyridin-2-yl)oxy)-N-phenylbenzamide hydrochloride] | < 300
CONC(=O)c1cccc(Oc2cc(CN)cc(C(F)(F)F)n2)c1 [Compound 1-219, 3-((4-(Aminomethyl)-6-(trifluoromethyl)pyridin-2-yl)oxy)-N-methoxybenzamide hydrochloride] | < 300
COc1cc(Oc2cc(CN)cc(C(F)(F)F)n2)cc(C(=O)N2C[C@@H](O)[C@H](F)C2)c1 (racemic) [Compound 1-232, Racemic-trans-(3-((4-(aminomethyl)-6-(trifluoromethyl)pyridin-2-yl)oxy)-5-methoxyphenyl)(3-fluoro-4-hydroxypyrrolidin-1-yl)methanone hydrochloride] | 300 to 1000

Results, then the compound that gave them:

IC50 [nM] | Compound
< 300 | NCc1cc(Oc2cccc(C(=O)Nc3ccccc3N)c2)nc(C(F)(F)F)c1 [Compound 1-225, 3-((4-(Aminomethyl)-6-(trifluoromethyl)pyridin-2-yl)oxy)-N-(2-aminophenyl)benzamide hydrochloride]
< 300 | NCc1cc(Oc2cccc(C(=O)NCC3(O)CCC3)c2)nc(C(F)(F)F)c1 [Compound 1-201, 3-((4-(Aminomethyl)-6-(trifluoromethyl)pyridin-2-yl)oxy)-N-((1-hydroxycyclobutyl)methyl)benzamide hydrochloride]
< 300 | N#CCCNC(=O)c1cccc(Oc2cc(CN)cc(C(F)(F)F)n2)c1 [Compound 1-198, 3-((4-(Aminomethyl)-6-(trifluoromethyl)pyridin-2-yl)oxy)-N-(2-cyanoethyl)benzamide hydrochloride]
< 300 | NCc1cc(Sc2cccc(C(=O)Nc3ccccc3)c2)nc(C(F)(F)F)c1 [Compound 1-68, 3-((4-(Aminomethyl)-6-(trifluoromethyl)pyridin-2-yl)thio)-N-phenylbenzamide hydrochloride]
< 300 | COC(=O)c1cccc(C(=O)Nc2cc(CN)cc(C(F)(F)F)n2)c1 [Compound 1-238, Methyl 3-((4-(aminomethyl)-6-(trifluoromethyl)pyridin-2-yl)carbamoyl)benzoate trifluoroacetate]
< 300 | NCc1cc(Oc2cccc3[nH]ccc23)nc(C(F)(F)F)c1 [Compound 1-58, (2-((1H-Indol-4-yl)oxy)-6-(trifluoromethyl)pyridin-4-yl)methanamine]
